The record followed here is patent US20080274060A1, “Therapeutic Foam” (priority 2005, published 2008).

Structures are written as SMILES.

A short description of this series: In vitro absorption of foam/gas in fresh human venous blood. The series is classed as in vitro ADME. The procedure:
In vitro experiments were conducted to determine the absorption of foam made with different gases in fresh human venous blood.
A 20 ml polypropylene syringe barrel was prepared by puncturing its side wall with a relatively large hypodermic needle to make a hole approximately 1 mm in diameter. This hole was then covered by securing a piece of clear flexible vinyl sheet over it with clear adhesive tape. A small magnetic stirrer element was introduced into the syringe barrel and the plunger then replaced. 20 ml of human venous blood was then with withdrawn in the usual manner from a human subject using the specially prepared syringe fitted with a hypodermic needle.
The hypodermic needle was removed and the syringe then placed on a magnetic stirrer unit so that the magnetic element in the syringe thoroughly agitated the blood. The Luer nozzle of the syringe was then connected to a 50 cm piece of manometer tubing which was arranged horizontally and left open at one end. The manometer tubing was secured against a scale.
A 0.5 ml measuring syringe with a fine pre-fitted needle was then filled with foam made from 1% polidocanol solution and air.
The needle of the 0.5 ml syringe was then introduced through the vinyl sheet on the side wall of the 20 ml syringe. […] The 0.5 ml aliquot of foam was then injected quickly and simultaneously a timer started (t0). As the foam displaced blood in the 20 ml syringe, the column of blood from the 20 ml syringe was displaced into the manometer tubing and the distance along the tubing reached by the distal end of the blood column was noted against the scale. The scale itself comprised spaced marker lines equally spaced at about 1 cm intervals.
As the gas in the foam started to be absorbed by the blood, the blood in the manometer tubing started to recede back towards the syringe. After the column appeared to have stopped moving, the timer was stopped (tF). The position of the distal end was again noted.
In this experiment, the air foam test was only observed for a few minutes after tF. […] A 20 ml syringe of fresh human venous blood, as in the above experiments, was injected with a 0.5 ml aliquot of a foam containing a percentage of nitrogen. The contents of the syringe were agitated as above and a period of 24 hours allowed to elapse.

As for `O=O` [Oxygen gas, oxygen gas], the “Absorbed volume at tF” value (0.5 ml aliquot in 20 ml blood) was found to be 0.46 mL. Where the note is “at tF”, this compound gave an Unabsorbed gas % of 8% and an Unabsorbed gas ml of 0.04 mL. Further, the “Position of blood at tF ("z")” value (manometer scale intervals, 45 intervals approx. 0.5 ml) was 5.5. Besides, the “tF” value (time until blood column stopped moving, 0.5 ml aliquot in 20 ml blood) was determined as 140 s.
